Test results taken from patent US10670605B2, “Cysteine reactive probes and uses thereof” (The Scripps Research Institute, priority 2015, dated 2020).

Assays:
Assay in all cases: Competitive isoTOP-ABPP in situ (fragment-treated cells)
Type in all cases: cell-based
[1] = biological target: cysteines in MDA-MB-231 and Ramos cells (Homo sapiens, UniProt Q14997)
[2] = biological target: T1, cysteines in MDA-MB-231 and Ramos cells (Homo sapiens, UniProt Q13428)
T1 sequence (Q13428 1-1488): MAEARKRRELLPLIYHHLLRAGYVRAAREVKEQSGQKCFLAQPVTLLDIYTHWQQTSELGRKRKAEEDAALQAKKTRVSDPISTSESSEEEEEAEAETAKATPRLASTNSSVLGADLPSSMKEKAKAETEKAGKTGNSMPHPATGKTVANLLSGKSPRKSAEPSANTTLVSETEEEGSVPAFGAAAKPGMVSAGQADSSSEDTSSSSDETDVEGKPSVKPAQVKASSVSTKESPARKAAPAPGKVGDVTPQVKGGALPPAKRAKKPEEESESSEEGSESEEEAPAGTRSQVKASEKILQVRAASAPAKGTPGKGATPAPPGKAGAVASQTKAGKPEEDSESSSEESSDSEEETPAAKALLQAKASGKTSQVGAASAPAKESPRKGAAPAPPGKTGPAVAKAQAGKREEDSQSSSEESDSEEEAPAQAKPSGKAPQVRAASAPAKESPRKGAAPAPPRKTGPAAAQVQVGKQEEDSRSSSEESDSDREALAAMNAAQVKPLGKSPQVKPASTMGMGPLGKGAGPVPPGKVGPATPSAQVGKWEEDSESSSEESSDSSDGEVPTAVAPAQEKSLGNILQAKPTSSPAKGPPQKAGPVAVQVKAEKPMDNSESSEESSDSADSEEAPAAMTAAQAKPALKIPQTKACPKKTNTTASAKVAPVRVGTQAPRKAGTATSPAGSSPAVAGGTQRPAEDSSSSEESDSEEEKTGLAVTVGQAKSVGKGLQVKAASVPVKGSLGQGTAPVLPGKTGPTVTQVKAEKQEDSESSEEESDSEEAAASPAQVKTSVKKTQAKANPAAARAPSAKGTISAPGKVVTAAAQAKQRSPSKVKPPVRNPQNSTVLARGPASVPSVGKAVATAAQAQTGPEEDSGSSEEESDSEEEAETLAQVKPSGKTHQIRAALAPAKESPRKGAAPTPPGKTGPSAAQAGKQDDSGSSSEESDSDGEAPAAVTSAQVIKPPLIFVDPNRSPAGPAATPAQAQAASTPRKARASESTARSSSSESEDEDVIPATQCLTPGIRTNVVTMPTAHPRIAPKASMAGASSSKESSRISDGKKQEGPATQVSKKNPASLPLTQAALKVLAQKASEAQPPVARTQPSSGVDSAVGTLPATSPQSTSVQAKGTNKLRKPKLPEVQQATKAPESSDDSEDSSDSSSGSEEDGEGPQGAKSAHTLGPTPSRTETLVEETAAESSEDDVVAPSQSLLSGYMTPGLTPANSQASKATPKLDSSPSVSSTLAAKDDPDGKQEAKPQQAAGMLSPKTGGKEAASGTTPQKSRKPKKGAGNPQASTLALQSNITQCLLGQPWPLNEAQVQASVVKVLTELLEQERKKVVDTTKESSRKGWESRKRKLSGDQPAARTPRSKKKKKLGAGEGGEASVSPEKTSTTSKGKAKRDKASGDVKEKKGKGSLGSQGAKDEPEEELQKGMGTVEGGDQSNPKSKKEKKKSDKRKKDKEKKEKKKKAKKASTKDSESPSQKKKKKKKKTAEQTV

[3] = biological target: cysteines in MDA-MB-231 and Ramos cells (Homo sapiens, UniProt Q9BUH6)
cysteines in MDA-MB-231 and Ramos cells (Homo sapiens, UniProt Q9BUH6), sequence (Q9BUH6 whole entry): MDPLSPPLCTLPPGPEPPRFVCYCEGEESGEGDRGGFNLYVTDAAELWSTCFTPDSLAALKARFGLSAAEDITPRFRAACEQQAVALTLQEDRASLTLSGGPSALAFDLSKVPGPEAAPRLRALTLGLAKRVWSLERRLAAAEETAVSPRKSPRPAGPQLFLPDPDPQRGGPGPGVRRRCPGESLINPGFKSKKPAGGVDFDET

[4] = biological target: T2, cysteines in MDA-MB-231 and Ramos cells (Homo sapiens, UniProt P49588)
T2 sequence (P49588 1-968): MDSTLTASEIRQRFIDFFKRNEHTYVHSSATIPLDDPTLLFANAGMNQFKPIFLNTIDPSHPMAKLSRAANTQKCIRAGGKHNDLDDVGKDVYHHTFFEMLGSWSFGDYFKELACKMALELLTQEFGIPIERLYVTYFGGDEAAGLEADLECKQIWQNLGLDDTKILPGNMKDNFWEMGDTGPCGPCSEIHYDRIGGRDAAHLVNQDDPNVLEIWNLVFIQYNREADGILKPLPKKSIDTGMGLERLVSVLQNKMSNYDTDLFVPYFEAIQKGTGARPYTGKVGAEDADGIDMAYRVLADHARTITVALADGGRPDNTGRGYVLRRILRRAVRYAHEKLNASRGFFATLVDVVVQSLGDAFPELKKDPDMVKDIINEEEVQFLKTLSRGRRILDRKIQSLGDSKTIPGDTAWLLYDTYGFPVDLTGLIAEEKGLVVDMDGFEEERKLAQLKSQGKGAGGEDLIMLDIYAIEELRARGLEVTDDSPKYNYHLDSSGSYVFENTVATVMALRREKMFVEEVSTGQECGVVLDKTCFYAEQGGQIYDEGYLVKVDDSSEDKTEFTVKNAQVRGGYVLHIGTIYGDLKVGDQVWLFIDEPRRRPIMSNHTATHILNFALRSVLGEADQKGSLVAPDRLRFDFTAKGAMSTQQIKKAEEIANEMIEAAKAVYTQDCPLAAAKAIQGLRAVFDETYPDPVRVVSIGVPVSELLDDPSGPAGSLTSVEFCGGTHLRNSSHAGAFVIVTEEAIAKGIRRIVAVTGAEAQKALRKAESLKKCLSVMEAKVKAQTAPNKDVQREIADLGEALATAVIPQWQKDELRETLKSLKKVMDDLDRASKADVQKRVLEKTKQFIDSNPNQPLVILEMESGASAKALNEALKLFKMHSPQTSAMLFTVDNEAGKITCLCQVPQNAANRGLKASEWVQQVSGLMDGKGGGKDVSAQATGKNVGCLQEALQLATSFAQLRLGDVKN

cysteines in MDA-MB-231 and Ramos cells (Homo sapiens, UniProt Q14997), sequence (Q14997 whole entry): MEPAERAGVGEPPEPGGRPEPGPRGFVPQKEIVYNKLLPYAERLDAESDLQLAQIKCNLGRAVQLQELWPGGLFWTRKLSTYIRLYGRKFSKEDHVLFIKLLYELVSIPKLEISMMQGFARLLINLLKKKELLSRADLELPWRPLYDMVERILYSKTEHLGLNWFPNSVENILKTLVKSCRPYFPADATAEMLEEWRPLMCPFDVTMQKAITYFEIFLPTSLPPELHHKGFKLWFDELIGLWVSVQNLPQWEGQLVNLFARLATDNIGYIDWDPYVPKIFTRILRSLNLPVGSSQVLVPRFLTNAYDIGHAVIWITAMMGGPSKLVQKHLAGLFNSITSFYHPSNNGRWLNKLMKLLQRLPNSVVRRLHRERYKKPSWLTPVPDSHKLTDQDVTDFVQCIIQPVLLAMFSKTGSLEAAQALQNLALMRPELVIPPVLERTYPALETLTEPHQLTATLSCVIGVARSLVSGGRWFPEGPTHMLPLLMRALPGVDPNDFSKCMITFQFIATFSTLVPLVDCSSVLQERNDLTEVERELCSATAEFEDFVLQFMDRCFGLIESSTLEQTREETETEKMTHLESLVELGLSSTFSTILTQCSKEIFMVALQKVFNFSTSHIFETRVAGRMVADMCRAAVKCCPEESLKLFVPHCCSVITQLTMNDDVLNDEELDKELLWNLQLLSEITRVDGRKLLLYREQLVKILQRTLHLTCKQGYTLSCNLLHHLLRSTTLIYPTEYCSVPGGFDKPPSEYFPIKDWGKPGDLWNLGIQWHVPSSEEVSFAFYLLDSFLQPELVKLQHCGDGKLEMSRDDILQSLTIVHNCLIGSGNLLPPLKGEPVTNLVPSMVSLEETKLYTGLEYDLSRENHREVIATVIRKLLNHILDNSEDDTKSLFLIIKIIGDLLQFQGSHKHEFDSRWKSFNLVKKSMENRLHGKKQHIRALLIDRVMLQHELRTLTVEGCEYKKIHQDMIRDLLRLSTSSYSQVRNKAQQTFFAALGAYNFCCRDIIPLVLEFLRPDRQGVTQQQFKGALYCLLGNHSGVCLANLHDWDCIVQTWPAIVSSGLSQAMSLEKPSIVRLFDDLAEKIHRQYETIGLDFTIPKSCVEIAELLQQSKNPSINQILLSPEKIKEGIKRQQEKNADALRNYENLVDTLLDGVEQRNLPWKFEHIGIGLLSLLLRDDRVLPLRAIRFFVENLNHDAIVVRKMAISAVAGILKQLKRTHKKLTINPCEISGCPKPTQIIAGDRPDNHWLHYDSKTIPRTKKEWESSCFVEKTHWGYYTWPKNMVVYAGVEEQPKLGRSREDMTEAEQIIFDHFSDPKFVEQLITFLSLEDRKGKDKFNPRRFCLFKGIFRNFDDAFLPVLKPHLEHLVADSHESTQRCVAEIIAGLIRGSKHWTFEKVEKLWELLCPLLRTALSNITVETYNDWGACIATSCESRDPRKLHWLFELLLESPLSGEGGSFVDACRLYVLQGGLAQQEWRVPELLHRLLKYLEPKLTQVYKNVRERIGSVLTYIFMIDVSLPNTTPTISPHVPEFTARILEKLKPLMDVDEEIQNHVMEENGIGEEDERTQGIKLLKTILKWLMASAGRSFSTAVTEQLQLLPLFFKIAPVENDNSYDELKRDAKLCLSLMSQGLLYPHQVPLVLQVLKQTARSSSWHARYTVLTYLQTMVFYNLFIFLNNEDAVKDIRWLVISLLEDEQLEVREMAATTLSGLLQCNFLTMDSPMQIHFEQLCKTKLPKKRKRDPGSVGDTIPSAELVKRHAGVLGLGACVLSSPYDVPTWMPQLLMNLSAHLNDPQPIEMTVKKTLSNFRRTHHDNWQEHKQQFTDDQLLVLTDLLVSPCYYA

Row | Compound | isoTOP-ABPP ratio Q14997_C1840 ([1]; 200 μM, insitu, 231) | isoTOP-ABPP ratio Q9BUH6_C180 ([3]; 200 μM, insitu, 231) | isoTOP-ABPP ratio Q13428_C38 ([2]; 200 μM, insitu, 231) | isoTOP-ABPP ratio Q13428_C1298 ([2]; 200 μM, insitu, 231) | isoTOP-ABPP ratio P49588_C773 ([4]; 200 μM, insitu, 231) | other results
1 | COc1ccc2c(c1)CCCN2C(=O)CCl [compound 2] |  |  |  |  |  | isoTOP-ABPP reactivity Q14997_C1840 PSME4 ([1]; 200 μM, insitu, 231): 2.8; isoTOP-ABPP reactivity Q13428_C38 TCOF1 ([2]; 200 μM, insitu, 231): 3.3; isoTOP-ABPP reactivity Q13428_C1298 TCOF1 ([2]; 200 μM, insitu, 231): 4.7
2 | COc1ccc(C2CC(c3cccs3)=NN2C(=O)CCl)cc1 (stereo not drawn) [compound 4] |  |  |  |  |  | isoTOP-ABPP reactivity Q14997_C1840 PSME4 ([1]; 100 μM in situ 231): 20.0; isoTOP-ABPP reactivity Q9BUH6_C180 C9orf142 ([3]; 100 μM in situ 231): 1.2; isoTOP-ABPP reactivity Q13428_C38 TCOF1 ([2]; 100 μM in situ 231): 2.8; isoTOP-ABPP reactivity Q13428_C1298 TCOF1 ([2]; 100 μM in situ 231): 5.6; isoTOP-ABPP reactivity P49588_C773 AARS ([4]; 100 μM in situ 231): 1.3
3 | COc1cc2c(cc1OC)CN(C(=O)CCl)CC2 [compound 8] |  |  |  |  |  | isoTOP-ABPP reactivity Q14997_C1840 PSME4 ([1]; 200 μM, insitu, 231): 20.0; isoTOP-ABPP reactivity Q9BUH6_C180 C9orf142 ([3]; 200 μM, insitu, 231): 6.6; isoTOP-ABPP reactivity Q13428_C38 TCOF1 ([2]; 200 μM, insitu, 231): 2.0; isoTOP-ABPP reactivity Q13428_C1298 TCOF1 ([2]; 200 μM, insitu, 231): 20.0; isoTOP-ABPP reactivity P49588_C773 AARS ([4]; 200 μM, insitu, 231): 1.5
4 | O=C(CCl)N1CCC(Cc2ccccc2)CC1 [compound 9] |  |  |  |  |  | isoTOP-ABPP reactivity Q9BUH6_C180 C9orf142 ([3]; 200 μM, insitu, 231): 2.8; isoTOP-ABPP reactivity P49588_C773 AARS ([4]; 200 μM, insitu, 231): 1.5
5 | O=C(CCl)N1CCN(S(=O)(=O)c2ccccc2F)CC1 [compound 10] | 20.0 | 3.8 | 4.2 | 5.9 | 2.1 | isoTOP-ABPP ratio P49588_C773 ([4]; 200 μM, insitu, ramos): 1.7
6 | Cn1cc(S(=O)(=O)N2CCOCC2)cc1C(=O)NC(=O)CCl [compound 11] |  |  |  |  |  | isoTOP-ABPP ratio Q13428_C38 ([2]; 100 μM in situ 231): 1.1; isoTOP-ABPP ratio Q13428_C1298 ([2]; 100 μM in situ 231): 0.8; isoTOP-ABPP ratio P49588_C773 ([4]; 100 μM in situ 231): 0.9
7 | O=C(CCl)NC(=O)NC12CC3CC(CC(C3)C1)C2 [compound 12] | 20.0 | 1.4 | 4.7 | 20.0 | 0.9 | 
8 | O=C(CCl)NCCc1c[nH]c2ccccc12 [compound 13] | 0.9 | 1.1 | 1.6 |  | 0.8 | isoTOP-ABPP ratio Q14997_C1840 ([1]; 200 μM, insitu, ramos): 1.6; isoTOP-ABPP ratio P49588_C773 ([4]; 200 μM, insitu, ramos): 1.1
9 | O=C(CCl)NC12CC3CC(CC(C3)C1)C2 [compound 21] | 1.0 |  | 1.5 |  | 1.1 | 
10 | CC(C)CCOCCNC(=O)CCl [compound 27] | 20.0 |  | 1.3 | 1.0 | 0.6 | 
11 | COc1ccccc1OCCNC(=O)CCl [compound 28] | 0.9 | 1.1 | 1.0 | 0.9 |  | 
12 | O=C(CCl)N1CCN(CC(=O)N2CCOCC2)CC1 [compound 29] |  |  |  |  |  | isoTOP-ABPP ratio Q9BUH6_C180 ([3]; 200 μM, insitu, ramos): 1.5; isoTOP-ABPP ratio Q13428_C38 ([2]; 200 μM, insitu, ramos): 1.5; isoTOP-ABPP ratio P49588_C773 ([4]; 200 μM, insitu, ramos): 1.1
13 | C=CC(=O)N(Cc1cccnc1)c1cc(C(F)(F)F)cc(C(F)(F)F)c1 [compound 31] |  | 0.8 |  |  |  | isoTOP-ABPP ratio Q14997_C1840 ([1]; 200 μM, insitu, ramos): 1.2; isoTOP-ABPP ratio Q13428_C1298 ([2]; 200 μM, insitu, ramos): 2.2; isoTOP-ABPP ratio P49588_C773 ([4]; 200 μM, insitu, ramos): 1.2
14 | C=CC(=O)Nc1cc(F)c(N2CCN(C(=O)OC(C)(C)C)CC2)c(F)c1 [compound 38] | 20.0 | 1.4 | 1.1 | 2.0 | 0.7 | 
15 | Cc1ccc(C=C(C#N)C(=O)NCCN2CCOCC2)cc1 [compound 41] | 0.9 | 0.6 | 1.1 | 1.0 | 0.7 | 
16 | CC1CCc2ccccc2N1C(=O)CCl (stereo not drawn) [compound 45] |  | 5.5 | 2.8 | 4.7 | 10.1 | 
17 | O=C(CCl)Nc1cccc2ncccc12 [compound 51] | 20.0 |  | 1.1 |  |  | 
